# Assay results as given in patent US9386938B2, “Methods for collagen imaging” (Collagen Medical, LLC, priority 2005, dated 2016).
# “And” between values parts separate entries of the source, which are not always exact repeats. Equal entries are not always repeated. Where two headings read alike, the source gives them in different places. Bridge positions count the residues as written; N and C are the ends. Ends that are not written are not given here. Glu‑DTPA‑Gd = N-terminal Glu-DTPA-Gd chelate (gadolinium DTPA complex on glutamic acid)
# Columns and labels:
# [1] = molecular target: T1, rat type I collagen (Rattus norvegicus, UniProt P02454+P02466); assay: MR phantom imaging at 4.7 T of rat collagen gel samples; details: samples 4 and 8 (centrifuged)
# T1 construct: Rat collagen (acid soluble, type I, rat tail); purchased Upstate USA, Inc 08-115; host or cells: rat tail (tissue extract)
# Experimental: Samples: • 1. […] Sample prepared as sample 2, but centrifuged to separate insoluble rat collagen gel • 5. Sample prepared as sample 3, but centrifuged to separate insoluble human collagen gel • 6. 27 μM GdDTPA solution in PBS, pH 7.4 • 7. 27 μM GdDTPA in a solution of 5.0 μM rat type I collagen in 10 mM phosphate buffer, pH 5 incubated at 37° C. overnight to form a gel • 8. Sample prepared as in sample 7, but centrifuged to separate insoluble rat collagen gel • 9. Homogeneous gel of 5 μM rat collagen • 10. Homogeneous gel of 7.5 μM human collagen
# Samples for imaging were placed in glass tubes that were in turn placed in tubes containing water. Images were acquired at 4.7 T on a Bruker Biospec Imager using a Multi-Slice Multi-Echo Method with variable Relaxation Delay (MSMEVTR) experiment. The spin echo time and the relaxation delay were set to TE=11.2 ms and TR=500 ms, respectively with a flip angle of 30°. Images were acquired of sample 2, sample 4, sample 7, and sample 8. […] Sample 7 and 8 show uniform signal intensity.
# [2] = test system: myocardium; assay: Myocardial MR imaging in mouse; format: in vivo, C57BL/6 mouse; details: 25 μmol/kg i.v. bolus, 4.7-T
# [3] = test system: infarcted myocardium; assay: Myocardial infarction MR imaging in mouse, 7 days post MI; format: in vivo, C57BL/6 mouse; details: 25 μmol/kg i.v. bolus
# [4] = Heart uptake in mice, gadolinium by ICP-MS; details: mouse, mesentery vein injection
# Experimental: Male BALB/c mice were anesthetized with pentobarbital (80 mg/kg ip). Following deep anesthesia, a longitudinal incision was made above the base of the abdomen up to just below the sternum. Internal organs were carefully moved out of the body cavity to the left, exposing the mesentery vein. […] The animals were sacrificed at 1, 5, 15, or minutes post-injection. The heart and lungs were immediately removed and rinsed in saline, separated from each other and rinsed with saline again. Both were removed and carefully dried before being prepared for analysis. Organs were digested with nitric acid and gadolinium content determined by ICP-MS.
# [5] = test system: perfused Langendorff rat heart; assay: Washout kinetics from perfused Langendorff rat heart; details: perfusion with buffer for 10 minutes
# Experimental: (§1) After deep anesthesia with pentobarbital (80 mg/kg ip), the chest cavity of a male Sprague Dawley rat (300 g) was opened, retracted and the heart was removed immediately and placed in an ice-cold normal Krebs-Henseleit (K-H) solution (NaCl, 118 mM; KCl, 4.7 mM; CaCl2, 2.5 mM; MgSO4, 1.2 mM; KH2PO4, 1.2 mM; NaHCO3, 25 mM; glucose, 5.5 mM). A K-H buffer filled 20 Gauge needle was inserted into the apex of the heart penetrating into the bottom of the chamber. This was attached to a pressure transducer used to record and monitor heart function. Perfusion pressure (˜60 mmHg) was monitored using a second transducer. The heart was perfused at a constant flow rate of 10-12 mL/min with 37° C. Krebs-Henseleit buffer saturated with a mixture of 95% O2 and 5% CO2 gas. The heart was paced at 300 beats/min.
# A Langendorff rat heart preparation was perfused with K-H buffer at a rate of 10-12 mL/min. A one mL solution containing SEQ ID NO: 144 (300 μM), radiolabeled (I-125) SEQ ID NO: 144 (1-6 μCi), GdDTPA (300 μM), and radiolabeled (Tc-99m) DTPA (5-8 μCi) was infused into the heart at a rate of 1 mL/min. After the infusion was finished, the heart was either removed or perfusion was allowed to continue for an additional 10 minutes and then the heart was removed. The perfusion buffer was not recirculated through the heart. After removal of any connective tissue, the heart was opened, fluid in the chambers drained, and the interior blotted dry with filter paper. The heart was then weighed and the radioactivity in the heart measured with a Packard Cobra 5003 Gamma Scintillation counter. […] An aliquot of the K-H buffer was also weighed and counted. Concentration estimates were decay corrected. Studies were performed at least in duplicate.
# A Langendorff rat heart preparation was perfused with K-H buffer at a rate of 10-12 mL/min. […] The heart was then weighed and the radioactivity in the heart measured with a Packard Cobra 5003 Gamma Scintillation counter. […] An aliquot of the K-H buffer was also weighed and counted. […]
# [6] = Biodistribution analysis in rats (heart and blood radioactivity); details: rat
# Experimental: (§2) At either one or five minutes post injection the animals were sacrificed and the blood and heart collected. The heart was rinsed in a saline and blotted dry before analysis. […] An aliquot of the injection solution was also weighed and counted. Concentration estimates were decay corrected. Studies were performed at least in duplicate.
# [7] = test system: perfused Langendorff rat heart; assay: Equilibrium binding to perfused Langendorff rat heart; details: 10 minutes
# Experimental: as §1
# Two peptide test articles, a high collagen binding peptide (SEQ ID NO: 144) and a low collagen binding peptide (SEQ ID NO: 173), are compared to GdDTPA. The appropriate test article was added to the K-H buffer solution to a total concentration of either 3 or 30 μM. Also added to the K-H buffer was a radiotracer analog of each peptide or GdDTPA. For the peptides, the radiotracer was an aliquot of the appropriate 1-125 labeled peptide derivative (see Example 5 for protocol). For GdDTPA, the tracer added was Tc-99m labeled DTPA. The amount of radioactivity added to the buffer solution was 1-5 μCi.
# The heart was perfused for a period of 10 minutes and the perfusion solution was recycled through the heart. The total volume of K-H buffer used was 50-60 mL. After 10 min, the heart was removed from the apparatus and any connective tissue was removed. The heart was opened, fluid in the chambers drained, and the interior blotted dry with filter paper. The heart was then weighed and the radioactivity in the heart measured with a Packard Cobra 5003 Gamma Scintillation counter. An aliquot of the K-H buffer was also weighed and counted. Studies were performed at least in duplicate.
# The dual peptide gadolinium tetramer (Compound ID 803) was compared to GdDTPA. Compound ID 803 and GdDTPA were added to the K-H buffer solution to a total concentration of 3 μM. Also added to the K-H buffer was a radiotracer analog of Compound ID 803 or GdDTPA. For Compound ID 803, the radiotracer was an aliquot of the In-111 labeled compound. For GdDTPA, the tracer added was Tc-99m labeled DTPA. The amount of radioactivity added to the buffer solution was 1-5 μCi.
# [8] = rat, in vivo
# Experimental: as §2
# [9] = In vivo heart uptake of collagen binding agent and non-binding analog; details: mouse, 10 μmol/kg tail vein, 15 minutes post-injection, N=4
# T1 sequence (P02454 152-1207 limits assumed): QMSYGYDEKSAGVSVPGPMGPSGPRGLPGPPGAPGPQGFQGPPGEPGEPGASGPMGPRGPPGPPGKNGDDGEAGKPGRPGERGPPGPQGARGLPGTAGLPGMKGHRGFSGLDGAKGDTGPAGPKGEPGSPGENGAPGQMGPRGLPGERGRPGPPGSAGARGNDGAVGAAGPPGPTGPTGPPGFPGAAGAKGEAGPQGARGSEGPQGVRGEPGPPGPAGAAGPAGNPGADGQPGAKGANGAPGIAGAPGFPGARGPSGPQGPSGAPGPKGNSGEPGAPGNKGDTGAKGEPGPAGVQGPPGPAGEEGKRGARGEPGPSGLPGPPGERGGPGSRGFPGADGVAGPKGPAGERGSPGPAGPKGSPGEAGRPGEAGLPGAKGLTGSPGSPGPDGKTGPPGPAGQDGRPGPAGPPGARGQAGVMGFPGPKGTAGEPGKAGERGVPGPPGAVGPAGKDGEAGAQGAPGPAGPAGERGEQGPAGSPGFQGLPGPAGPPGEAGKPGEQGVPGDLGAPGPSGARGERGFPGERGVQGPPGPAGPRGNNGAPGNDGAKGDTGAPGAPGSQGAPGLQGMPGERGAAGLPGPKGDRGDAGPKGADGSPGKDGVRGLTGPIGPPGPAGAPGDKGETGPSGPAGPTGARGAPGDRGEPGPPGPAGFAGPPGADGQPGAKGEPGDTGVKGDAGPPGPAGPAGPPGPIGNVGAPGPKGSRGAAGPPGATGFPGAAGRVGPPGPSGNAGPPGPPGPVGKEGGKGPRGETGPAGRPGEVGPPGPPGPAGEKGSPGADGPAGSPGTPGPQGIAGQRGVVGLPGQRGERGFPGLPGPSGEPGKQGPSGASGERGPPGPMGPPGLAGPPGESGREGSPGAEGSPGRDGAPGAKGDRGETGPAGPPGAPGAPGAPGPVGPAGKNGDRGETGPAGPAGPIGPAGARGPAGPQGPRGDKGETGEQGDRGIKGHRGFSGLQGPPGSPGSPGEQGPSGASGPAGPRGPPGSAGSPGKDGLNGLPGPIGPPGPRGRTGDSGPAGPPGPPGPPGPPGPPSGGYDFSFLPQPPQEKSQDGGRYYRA
# T1 sequence (P02466 86-1125 limits assumed): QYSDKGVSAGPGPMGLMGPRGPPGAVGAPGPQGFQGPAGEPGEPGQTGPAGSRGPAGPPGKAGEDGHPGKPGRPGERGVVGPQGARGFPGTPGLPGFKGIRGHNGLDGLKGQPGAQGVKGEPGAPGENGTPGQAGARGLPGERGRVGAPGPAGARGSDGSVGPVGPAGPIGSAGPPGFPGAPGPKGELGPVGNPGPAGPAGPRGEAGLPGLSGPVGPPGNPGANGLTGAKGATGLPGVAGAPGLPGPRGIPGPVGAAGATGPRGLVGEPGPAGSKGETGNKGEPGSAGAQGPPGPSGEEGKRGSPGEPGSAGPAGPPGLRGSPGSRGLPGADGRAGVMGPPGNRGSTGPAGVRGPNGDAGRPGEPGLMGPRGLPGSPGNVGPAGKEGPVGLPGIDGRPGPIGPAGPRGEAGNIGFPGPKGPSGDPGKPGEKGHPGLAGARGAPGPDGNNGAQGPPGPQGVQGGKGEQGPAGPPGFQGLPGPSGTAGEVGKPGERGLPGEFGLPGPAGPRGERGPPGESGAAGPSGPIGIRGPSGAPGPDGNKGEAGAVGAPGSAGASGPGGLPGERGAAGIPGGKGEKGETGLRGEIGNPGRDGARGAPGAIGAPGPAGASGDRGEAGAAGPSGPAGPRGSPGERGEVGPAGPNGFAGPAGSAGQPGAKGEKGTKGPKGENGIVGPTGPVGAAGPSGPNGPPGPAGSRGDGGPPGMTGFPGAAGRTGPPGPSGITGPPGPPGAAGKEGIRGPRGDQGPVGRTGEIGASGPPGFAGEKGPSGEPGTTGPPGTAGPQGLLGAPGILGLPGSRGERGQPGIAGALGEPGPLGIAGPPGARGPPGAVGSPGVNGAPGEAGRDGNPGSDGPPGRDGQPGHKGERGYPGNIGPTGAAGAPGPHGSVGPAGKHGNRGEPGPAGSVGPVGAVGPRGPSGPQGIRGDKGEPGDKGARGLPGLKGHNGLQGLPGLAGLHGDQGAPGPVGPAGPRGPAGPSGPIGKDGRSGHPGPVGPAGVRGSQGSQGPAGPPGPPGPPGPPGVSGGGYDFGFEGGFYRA
molecule,measurement,setting,value
Glu-DTPA-Gd-G.Q.W.H.C.T.T.R.F.P.H.H.Y.C.L.Y.G-PEG-H ({Glu‑DTPA‑Gd}-GQWHCTTRFPHHYCLYG; disulfide 5-14 (inferred); not fully specified (C-terminus)) [SEQ ID NO. 186],MR signal of centrifuged rat collagen gel pellet versus supernatant,[1],the pellet for sample 4 was much brighter than the supernatant
CC(C)C[C@H](NC(=O)[C@@H]1CSSC[C@H](NC(=O)[C@H](Cc2c[nH]cn2)NC(=O)[C@H](Cc2c[nH]c3ccccc23)NC(=O)[C@H](CCCCNC(=O)CNC(=S)Nc2ccc(C[C@@H](CN(CCN(CC(=O)O)CC(=O)O)CC(=O)O)N(CC(=O)O)CC(=O)O)cc2)NC(=O)CNC(=S)Nc2ccc(C[C@@H](CN(CCN(CC(=O)O)CC(=O)O)CC(=O)O)N(CC(=O)O)CC(=O)O)cc2)C(=O)N[C@@H]([C@@H](C)O)C(=O)N[C@@H]([C@@H](C)O)C(=O)N[C@@H](CCCCNC(=S)Nc2ccc(C[C@@H](CN(CCN(CC(=O)O)CC(=O)O)CC(=O)O)N(CC(=O)O)CC(=O)O)cc2)C(=O)N[C@@H](Cc2ccccc2)C(=O)N2CCC[C@H]2C(=O)N[C@@H](Cc2c[nH]cn2)C(=O)N[C@@H](Cc2c[nH]cn2)C(=O)N[C@@H](Cc2ccc(O)cc2)C(=O)N1)C(=O)N[C@@H](Cc1ccc(O)cc1)C(=O)N[C@@H](Cc1ccc(-c2ccccc2)cc1)C(N)=O [Compound ID 800],persistence of positive enhancement of the myocardium,[2],at least 1 hour
same,MR enhancement of infarcted regions,[3],hyperenhancement of infarcted zones
same,persistence of enhancement,[3],at least 1 hour
same,retention of gadolinium in the heart,[4],≥ 30 min
"O=C([O-])CN(CCN(CC(=O)[O-])CC(=O)O)CCN(CC(=O)[O-])CC(=O)O.[Gd+3] [GdDTPA, gadolinium diethylenetriaminepentaacetate, reference compound]",amount remaining in heart at 10 minutes after infusion relative to 0 minutes post infusion,[5],0.5% and 2.2%
same,MR signal of centrifuged rat collagen gel pellet versus supernatant,[1],no increased concentration of GdDTPA in the gel relative to the supernatant
same,Heart:Blood,[6]; 1 min post injection,0.26
same,Heart:Blood,[6]; 5 min post injection,0.26
Q W T C S G D A Y T W H C N Y E (GQWTCSGDAYTWHCNYE; disulfide 5-14 (inferred); not fully specified (C-terminus)) [SEQ ID NO. 144],heart uptake relative to GdDTPA,[7],about 10 times
same,amount remaining in heart at 10 minutes after infusion relative to 0 minutes post infusion,[5],68%
same,Heart:Blood,[8],0.38
CC(C)C[C@H](NC(=O)[C@@H]1CSSC[C@@H](NC(=O)[C@H](Cc2c[nH]cn2)NC(=O)[C@H](Cc2c[nH]c3ccccc23)NC(=O)[C@H](CCCCNC(=O)CNC(=S)Nc2ccc(C[C@@H](CN(CCN(CC(=O)O)CC(=O)O)CC(=O)O)N(CC(=O)O)CC(=O)O)cc2)NC(=O)CNC(=S)Nc2ccc(C[C@@H](CN(CCN(CC(=O)O)CC(=O)O)CC(=O)O)N(CC(=O)O)CC(=O)O)cc2)C(=O)N[C@@H]([C@@H](C)O)C(=O)N[C@@H]([C@@H](C)O)C(=O)N[C@@H](CCCCNC(=S)Nc2ccc(C[C@@H](CN(CCN(CC(=O)O)CC(=O)O)CC(=O)O)N(CC(=O)O)CC(=O)O)cc2)C(=O)N[C@@H](Cc2ccccc2)C(=O)N2CCC[C@H]2C(=O)N[C@@H](Cc2c[nH]cn2)C(=O)N[C@@H](Cc2c[nH]cn2)C(=O)N[C@@H](Cc2ccc(O)cc2)C(=O)N1)C(=O)N[C@@H](Cc1ccc(O)cc1)C(=O)N[C@@H](Cc1ccc(-c2ccccc2)cc1)C(N)=O [Compound ID 1019],Gadolinium concentration in the blood,[9],13.3±0.3 nmol Gd/g tissue
same,Gadolinium concentration in the heart,[9],14.7±1.0 nmol Gd/g tissue
